According to ChEMBL document CHEMBL1201862, “PubChem BioAssay data set” (2004):
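Step 1: Grow cells in 96-well plates. Step 2: Expose to compound for 48 hours at 5 concentrations. Step 3: Interpolate endpoints linearly; if unreached, use highest concentration. GI50 = concentration required for 50% inhibition of growth.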 The source made the active and inactive calls. Rule as the data show it: active = GI50 up to about 1.1 µM and inactive = higher.

Key:
Assay in all cases: NCI-60 cell line screen, 48 h
[1] = test system: NCI-H226
[2] = test system: OVCAR-4
[3] = test system: EKVX
[4] = test system: HOP-62
[5] = test system: HL-60
[6] = test system: SK-OV-3
[7] = test system: OVCAR-5
[8] = test system: SNB-19
[9] = test system: RPMI-8226
[10] = test system: SN12C
[11] = test system: NCI/ADR-RES
[12] = test system: SW-620
[13] = test system: CCRF-CEM
[14] = test system: HCT-116
[15] = test system: Malme-3M
[16] = test system: NCI-H23
[17] = test system: MDA-MB-231
[18] = test system: K562
[19] = test system: DU-145
[20] = test system: RXF 393

| Structure (SMILES) | GI50 [1] | GI50 [2] | GI50 [3] | GI50 [4] | GI50 [5] | GI50 [6] | GI50 [7] | GI50 [8] | GI50 [9] | GI50 [10] | GI50 [11] | GI50 [12] | GI50 [13] | GI50 [14] | GI50 [15] | GI50 [16] | GI50 [17] | GI50 [18] | GI50 [19] | GI50 [20] |
| --- | --- | --- | --- | --- | --- | --- | --- | --- | --- | --- | --- | --- | --- | --- | --- | --- | --- | --- | --- | --- |
| COc1ccc(CC2C(=O)NC(C)C(=O)N(C)C3C(=O)N(C)C(Cc4ccc(O)c(c4)Oc4ccc(cc4)C3O)C(=O)NC(C)C(=O)NC(C)C(=O)N2C)cc1 (centres undefined) | 0.00459 µM (active) | 0.00664 µM (active) | 0.0261 µM (active) | 0.0284 µM (active) | 0.00308 µM (active) | 0.0236 µM (active) | 0.0303 µM (active) | 0.00392 µM (active) | 0.014 µM (active) | 0.018 µM (active) | 0.212 µM (active) | 0.0181 µM (active) | 0.0013 µM (active) | 0.00181 µM (active) | 0.0171 µM (active) | 0.016 µM (active) | < 0.01 µM (active) | 0.0179 µM (active) | < 0.01 µM (active) | 0.0396 µM (active) |
| COc1cc(Nc2nc3c(N)cc(C(F)(F)F)cc3nc2-c2ccccc2)cc(OC)c1OC | 61.1 µM (inactive) | 15 µM (inactive) | > 100 µM (inactive) | 26.3 µM (inactive) | > 100 µM (inactive) | 42.5 µM (inactive) | > 100 µM (inactive) | 25.8 µM (inactive) | > 100 µM (inactive) | 43 µM (inactive) | > 53.2 µM (inactive) | > 90.4 µM (inactive) | > 100 µM (inactive) | > 74.3 µM (inactive) | 41.1 µM (inactive) | 70.3 µM (inactive) | > 42.5 µM (inactive) | > 100 µM (inactive) | > 100 µM (inactive) | 1.98 µM (inactive) |
| C=CCC(C)C12CCNC(Cc3ccc(O)cc31)C2C (centres undefined) | > 100 µM (inactive) | > 100 µM (inactive) | > 100 µM (inactive) | > 100 µM (inactive) | > 10 µM (inactive) | > 100 µM (inactive) | > 100 µM (inactive) | > 100 µM (inactive) | > 100 µM (inactive) | > 100 µM (inactive) | > 100 µM (inactive) | > 100 µM (inactive) | > 100 µM (inactive) | > 100 µM (inactive) | > 100 µM (inactive) | > 100 µM (inactive) | > 100 µM (inactive) | 41.3 µM (inactive) | > 100 µM (inactive) | > 100 µM (inactive) |
| C=CCOC1=C(OC(C)=O)C(=O)OC1C1COC(C)(C)O1 (centres undefined) | 61.1 µM (inactive) | 17.2 µM (inactive) | 27.5 µM (inactive) | 29.4 µM (inactive) | 18.5 µM (inactive) | > 100 µM (inactive) | 60 µM (inactive) | > 74.3 µM (inactive) | 31.8 µM (inactive) | > 42.8 µM (inactive) | > 61.5 µM (inactive) | 25.6 µM (inactive) | 21.4 µM (inactive) | 26.2 µM (inactive) | 21.8 µM (inactive) | 31.5 µM (inactive) | 38.4 µM (inactive) | 23.6 µM (inactive) | > 92.9 µM (inactive) | 26.3 µM (inactive) |
| CCOC(=O)C1CC(C(=O)c2ccccc2)N2c3ccccc3-c3ccccc3C12 (centres undefined) | > 100 µM (inactive) | 26.4 µM (inactive) | > 100 µM (inactive) | 97.1 µM (inactive) | 10.7 µM (inactive) | > 100 µM (inactive) | > 100 µM (inactive) | > 100 µM (inactive) | 11.9 µM (inactive) | > 100 µM (inactive) | 43.2 µM (inactive) | > 100 µM (inactive) | 28.1 µM (inactive) | 30.8 µM (inactive) | > 100 µM (inactive) | > 100 µM (inactive) | 41.7 µM (inactive) | 31.6 µM (inactive) | > 100 µM (inactive) | 29.9 µM (inactive) |
| CC(NC1=CC(=O)c2cccnc2C1=O)C(O)c1ccccc1 (centres undefined) | 1.96 µM (inactive) | 2.94 µM (inactive) | 6.04 µM (inactive) | 1.26 µM (inactive) | 1.85 µM (inactive) | 2.92 µM (inactive) | 1.79 µM (inactive) | 2.08 µM (inactive) | 2.09 µM (inactive) | 1.38 µM (inactive) | 3.63 µM (inactive) | 1.66 µM (inactive) | 4.02 µM (inactive) | 2.22 µM (inactive) | 1.48 µM (inactive) | 1.06 µM (active) | 2.52 µM (inactive) | 2.23 µM (inactive) | 1.6 µM (inactive) | 2.71 µM (inactive) |
| S=P(C1CCCCC1)(C1CCCCC1)C(c1cccnc1)N1CCCC1 (centres undefined) | 19.4 µM (inactive) | 21.5 µM (inactive) | 19.1 µM (inactive) | 16.3 µM (inactive) | 18.1 µM (inactive) | 81.8 µM (inactive) | 36.1 µM (inactive) | 83.2 µM (inactive) | 15.5 µM (inactive) | 18.2 µM (inactive) | 19 µM (inactive) | 36.2 µM (inactive) | 15.8 µM (inactive) | 18.5 µM (inactive) | 23.2 µM (inactive) | 18.7 µM (inactive) | 18.6 µM (inactive) | 21.2 µM (inactive) | 16.1 µM (inactive) | 18.6 µM (inactive) |
| NNC(=O)CC(=O)Nc1ccc(C(=O)O)cc1 | > 100 µM (inactive) | > 100 µM (inactive) | > 100 µM (inactive) | > 100 µM (inactive) | > 100 µM (inactive) | > 100 µM (inactive) | > 100 µM (inactive) | > 100 µM (inactive) | > 100 µM (inactive) | > 100 µM (inactive) | > 100 µM (inactive) | > 100 µM (inactive) | > 100 µM (inactive) | > 100 µM (inactive) | > 100 µM (inactive) | > 100 µM (inactive) | > 100 µM (inactive) | > 100 µM (inactive) | > 100 µM (inactive) | > 100 µM (inactive) |
| O=C1/C(=C/c2ccco2)N=C2Sc3c([nH]cnc3=O)N12 | > 100 µM (inactive) | 44.4 µM (inactive) | > 100 µM (inactive) | > 100 µM (inactive) | > 100 µM (inactive) | > 100 µM (inactive) | > 100 µM (inactive) | > 100 µM (inactive) | > 100 µM (inactive) | > 100 µM (inactive) | > 100 µM (inactive) | > 100 µM (inactive) | > 100 µM (inactive) | > 100 µM (inactive) | > 100 µM (inactive) | > 100 µM (inactive) | > 100 µM (inactive) | > 100 µM (inactive) | > 100 µM (inactive) | > 100 µM (inactive) |
| Clc1ccc(C2=Cc3nc2c(-c2ccccc2)c2ccc([nH]2)c(-c2ccccc2)c2nc(c(-c4ccccc4)c4ccc([nH]4)c3-c3ccccc3)C=C2)cc1 | > 62.5 µM (inactive) | > 62.5 µM (inactive) | > 62.5 µM (inactive) | > 62.5 µM (inactive) | > 62.5 µM (inactive) | > 62.5 µM (inactive) | > 62.5 µM (inactive) | 46 µM (inactive) | > 62.5 µM (inactive) | > 62.5 µM (inactive) | > 62.5 µM (inactive) | > 62.5 µM (inactive) | > 62.5 µM (inactive) | > 62.5 µM (inactive) | > 62.5 µM (inactive) | > 62.5 µM (inactive) | > 62.5 µM (inactive) | > 62.5 µM (inactive) | > 62.5 µM (inactive) | > 62.5 µM (inactive) |
| O=[N+]([O-])c1ccc(Cl)c(CNc2ncnc3c2ncn3C2CCCCO2)c1 (centres undefined) | 43.2 µM (inactive) | 54.1 µM (inactive) | 77.1 µM (inactive) | 48.4 µM (inactive) | 26.8 µM (inactive) | 36.5 µM (inactive) | > 100 µM (inactive) | 61.1 µM (inactive) | 38.6 µM (inactive) | 29.6 µM (inactive) | 25.1 µM (inactive) | 35 µM (inactive) |  | 43.2 µM (inactive) | 64.9 µM (inactive) | 31.8 µM (inactive) | 32.9 µM (inactive) | 31.4 µM (inactive) | 29.1 µM (inactive) | 14.9 µM (inactive) |
| O=C(CC(=O)Nc1ccccc1Cl)NNC(Sc1ccccc1)c1cc(/N=N/c2ccc(Br)cc2)ccc1O (centres undefined) | 1.67 µM (inactive) | 1.86 µM (inactive) | 3.29 µM (inactive) | 2.56 µM (inactive) | 0.315 µM (active) | 3.03 µM (inactive) | 3.01 µM (inactive) | 4.06 µM (inactive) | 1.23 µM (inactive) | 2.22 µM (inactive) | 1.28 µM (inactive) | 0.69 µM (active) | 0.409 µM (active) | 0.387 µM (active) | 2.12 µM (inactive) | 1.85 µM (inactive) | 2.22 µM (inactive) | 2.31 µM (inactive) | 2.28 µM (inactive) | 1.53 µM (inactive) |
| CC(=O)/N=C1/N(/C=C2\C(=O)Oc3ccccc3C2=O)C(=O)/C(=C/c2ccccc2Cl)N1C | > 100 µM (inactive) | > 100 µM (inactive) | 84.9 µM (inactive) | > 100 µM (inactive) | > 100 µM (inactive) | > 100 µM (inactive) | > 100 µM (inactive) | 95.3 µM (inactive) | > 100 µM (inactive) | > 100 µM (inactive) | 84.9 µM (inactive) | > 100 µM (inactive) | > 100 µM (inactive) | > 100 µM (inactive) | > 100 µM (inactive) | > 100 µM (inactive) | > 100 µM (inactive) | > 100 µM (inactive) | > 100 µM (inactive) | > 100 µM (inactive) |
| COc1ccc(Cc2ccc3nc(O)cc(C)c3c2)cc1S(=O)(=O)O | > 100 µM (inactive) | > 100 µM (inactive) | > 100 µM (inactive) | > 100 µM (inactive) | > 100 µM (inactive) | > 100 µM (inactive) | > 100 µM (inactive) | > 100 µM (inactive) | > 100 µM (inactive) | > 100 µM (inactive) | > 100 µM (inactive) | > 100 µM (inactive) | > 100 µM (inactive) | > 100 µM (inactive) | > 100 µM (inactive) | > 100 µM (inactive) | > 100 µM (inactive) | > 100 µM (inactive) | > 100 µM (inactive) | > 100 µM (inactive) |
